In patent US20250163047A1, “HETEROCYCLIC COMPOUNDS, COMPOSITIONS THEREOF, AND METHODS OF TREATMENT THEREWITH” (BeiGene, Ltd., priority 2022, published 2025) one finds IC50 data, which are given here for 16 compounds.

One experiment concerns the target T1, Cbl-b (aa36-427) (Homo sapiens, UniProt Q13191).
T1 construct: Cbl-b (aa36-427, in-house); made in house
Put plainly: Co-expressed Cbl-b with BirA biochemical assay (CBLB/E2-Ub binding, HTRF). Conditions: 0.6 nM Cbl-b co-expressed with BirA, HTRF; read-out: co-express CBLB/E2-Ub-binding assay IC50. An excerpt: (§1) The assay in the absence of a Cbl-b/Cbl inhibitor, where phosphorylation of Cbl-b/Cbl by the Src kinase allows UbcH5B-Ub to bind to Cbl-b/Cbl and brings the Bodipy-Fluorescein tagged ubiquitin in proximity to the streptavidin-terbium bound to the N-terminal biotinylated Avi-tagged Cbl-b/Cbl. […] The lack of a FRET signal indicates Cbl-b/Cbl is inhibited by the Cbl-b/Cbl inhibitor.

A further experiment concerns the target T2, Cbl (aa49-434) (Homo sapiens, UniProt P22681).
T2 construct: Cbl (aa49-434, in-house); made in house
T2 sequence (P22681 49-434): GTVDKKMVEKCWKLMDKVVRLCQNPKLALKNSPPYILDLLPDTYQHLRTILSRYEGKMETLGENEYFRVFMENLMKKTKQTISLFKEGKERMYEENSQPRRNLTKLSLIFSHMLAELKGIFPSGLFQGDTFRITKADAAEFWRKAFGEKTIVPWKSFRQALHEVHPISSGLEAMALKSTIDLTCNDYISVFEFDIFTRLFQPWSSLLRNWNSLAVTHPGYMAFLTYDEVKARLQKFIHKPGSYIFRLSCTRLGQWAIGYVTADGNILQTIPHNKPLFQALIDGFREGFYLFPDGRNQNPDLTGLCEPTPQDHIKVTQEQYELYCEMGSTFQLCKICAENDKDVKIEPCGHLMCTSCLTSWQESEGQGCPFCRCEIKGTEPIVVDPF
Put plainly: Co-expressed Cbl with BirA biochemical assay (CBL/E2-Ub binding, HTRF). Conditions: 0.6 nM Cbl co-expressed with BirA, read-out: co-express CBL/E2-Ub-binding assay IC50.
Description: as §1

T1 sequence (Q13191 36-427): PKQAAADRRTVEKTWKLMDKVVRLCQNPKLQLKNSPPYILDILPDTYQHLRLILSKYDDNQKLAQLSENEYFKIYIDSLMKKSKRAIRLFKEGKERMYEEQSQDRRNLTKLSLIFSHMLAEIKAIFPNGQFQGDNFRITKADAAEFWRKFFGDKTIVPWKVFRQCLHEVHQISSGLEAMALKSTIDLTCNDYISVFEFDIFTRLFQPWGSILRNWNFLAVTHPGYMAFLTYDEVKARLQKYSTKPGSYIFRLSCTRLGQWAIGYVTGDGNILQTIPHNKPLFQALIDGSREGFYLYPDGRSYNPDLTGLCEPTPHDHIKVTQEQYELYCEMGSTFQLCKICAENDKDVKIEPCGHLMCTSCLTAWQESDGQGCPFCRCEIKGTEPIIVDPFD

Regarding `C[C@@H]1CN(Cc2cc(C(=O)Nc3cccc([C@]4(c5nncn5C)C[C@@H](C)C4)c3)nc3c2NCC32CC2)CC[C@@H]1F` [Compound C50, 7′-(((3R,4S)-4-fluoro-3-methylpiperidin-1-yl)methyl)-N-(3-((1s,3S)-3-methyl-1-(4-methyl-4H-1,2,4-triazol-3-yl)cyclobutyl)phenyl)-1′,2′-dihydrospiro[cyclopropane-1,3′-pyrrolo[3,2-b]pyridine]-5′-carboxamide], the IC50 on Cbl-b (aa36-427) stood at 0.7 nM; at Cbl (aa49-434), 0.8 nM.
Taken in the same sequence, the figures for `C[C@H](NCc1cc(C(=O)Nc2cncc([C@]3(c4nncn4C)C[C@@H](C)C3)c2)c2ncc(Cl)n2c1)C1CC1` [Compound A77, 3-chloro-6-((((S)-1-cyclopropylethyl)amino)methyl)-N-(5-((1s,3R)-3-methyl-1-(4-methyl-4H-1,2,4-triazol-3-yl)cyclobutyl)pyridin-3-yl)imidazo[1,2-a]pyridine-8-carboxamide] were 0.4 nM and 1.2 nM.
Taken in the same sequence, the figures for `C[C@H](NCc1cc(C(=O)Nc2cccc([C@]3(c4nncn4C)C[C@@H](CC#N)C3)c2)nc2c1CCC2(C)C)C1CCC1` [Compound C38, N-(3-((1s,3R)-3-(cyanomethyl)-1-(4-methyl-4H-1,2,4-triazol-3-yl)cyclobutyl)phenyl)-4-((((S)-1-cyclobutylethyl)amino)methyl)-7,7-dimethyl-6,7-dihydro-5H-cyclopenta[b]pyridine-2-carboxamide] were 1.1 nM and 1.5 nM.
The matching figures for `C[C@H]1CCCN(Cc2cc(C(=O)Nc3cccc([C@]4(c5nncn5C)C[C@@H](CC#N)C4)c3)nc3c2NCC3(C)C)C1` [Compound C13, 3,3-dimethyl-7-{[(3S)-3-methylpiperidin-1-yl]methyl}-N-{3-[(1s, 3s)-3-(cyanomethyl)-1-(4-methyl-1,2,4-triazol-3-yl)cyclobutyl]phenyl}-1H,2H-pyrrolo[3,2-b]pyridine-5-carboxamide]: 1.1 nM and 9.2 nM.
`C[C@H](NCc1cc(C(=O)Nc2cccc([C@]3(c4nncn4C)C[C@@H](C)C3)c2)c2ncc(Cl)n2c1)C1CC1` [Compound A58, 3-chloro-6-((((S)-1-cyclopropylethyl)amino)methyl)-N-(3-((1s,3R)-3-methyl-1-(4-methyl-4H-1,2,4-triazol-3-yl)cyclobutyl)phenyl)imidazo[1,2-a]pyridine-8-carboxamide]: the IC50 at Cbl-b (aa36-427) turned out to be 0.7 nM; at Cbl (aa49-434) it was 2.6 nM.
With `CC(C)CNCc1cc(C(=O)Nc2cncc([C@]3(c4nncn4C)C[C@@H](C)C3)c2)c2ncc(Cl)n2c1` [Compound A83, 3-chloro-6-((isobutylamino)methyl)-N-(5-((1s, 3s)-3-methyl-1-(4-methyl-4H-1,2,4-triazol-3-yl)cyclobutyl)pyridin-3-yl)imidazo[1,2-a]pyridine-8-carboxamide], the results for the IC50 on Cbl-b (aa36-427) and at Cbl (aa49-434) were 1 nM and 1.7 nM, respectively.
Taken in the same sequence, the figures for `C[C@H]1CCCN(Cc2cc(C(=O)Nc3cccc([C@]4(c5nncn5C)C[C@@H](CC#N)C4)c3)nc3c(Cl)c[nH]c23)C1` [Compound B16, 3-chloro-N-(3-((1s,3R)-3-(cyanomethyl)-1-(4-methyl-4H-1,2,4-triazol-3-yl)cyclobutyl)phenyl)-7-(((S)-3-methylpiperidin-1-yl)methyl)-1H-pyrrolo[3,2-b]pyridine-5-carboxamide] were 1.7 nM and 16.1 nM.
Taken in the same sequence, the figures for `Cn1cnnc1C[C@]1(c2cccc(NC(=O)c3cc(CNCC4CCCC(F)(F)C4)c4c(n3)C(C)(C)CC4)c2)C[C@H](C#N)C1` (some centres unmarked) [Compound C15, N-(3-((1r, 3r)-3-cyano-1-((4-methyl-4H-1,2,4-triazol-3-yl)methyl)cyclobutyl)phenyl)-4-((((3,3-difluorocyclohexyl)methyl)amino)methyl)-7,7-dimethyl-6,7-dihydro-5H-cyclopenta[b]pyridine-2-carboxamide] were 1.8 nM and 5.2 nM.
Turning to `CC(C)CNCc1cc(C(=O)Nc2cccc([C@]3(c4nncn4C)C[C@@H](C)C3)c2)nc2cc[nH]c12` [Compound B1, 7-((isobutylamino)methyl)-N-(3-((1s, 3s)-3-methyl-1-(4-methyl-4H-1,2,4-triazol-3-yl)cyclobutyl)phenyl)-1H-pyrrolo[3,2-b]pyridine-5-carboxamide], the IC50 turned out to be 0.7 nM on Cbl-b (aa36-427) and 2.1 nM at Cbl (aa49-434).
Taken in the same sequence, the figures for `Cn1cnnc1[C@]1(c2cncc(NC(=O)c3cc(CNCC4CCC4)cn4c(F)cnc34)c2)C[C@H](C)C1` [Compound A71, 6-{[(cyclobutylmethyl)amino]methyl}-3-fluoro-N-{5-[(1r, 3s)-3-methyl-1-(4-methyl-1,2,4-triazol-3-yl)cyclobutyl]pyridin-3-yl}imidazo[1,2-a]pyridine-8-carboxamide] were 0.6 nM and 0.9 nM.
Take `CC(C)CNCc1cc(C(=O)Nc2cncc([C@]3(c4nncn4C)C[C@@H](C)C3)c2)nc2cc[nH]c12` [Compound B2, 7-((isobutylamino)methyl)-N-(5-((1s, 3s)-3-methyl-1-(4-methyl-4H-1,2,4-triazol-3-yl)cyclobutyl)pyridin-3-yl)-1H-pyrrolo[3,2-b]pyridine-5-carboxamide]: the IC50 at Cbl-b (aa36-427) was 1.8 nM; on Cbl (aa49-434), 4.7 nM.
Taken in the same sequence, the figures for `CC[C@H](C)NCc1cc(C(=O)Nc2cncc([C@]3(c4nncn4C)C[C@@H](C)C3)c2)nc2cc[nH]c12` [Compound B47, 7-((((S)-sec-butyl)amino)methyl)-N-(5-((1s,3R)-3-methyl-1-(4-methyl-4H-1,2,4-triazol-3-yl)cyclobutyl)pyridin-3-yl)-1H-pyrrolo[3,2-b]pyridine-5-carboxamide] were 2.2 nM and 6.1 nM.
For `Cc1c[nH]c2c(CN3CCC[C@H](C)C3)cc(C(=O)Nc3cccc([C@]4(c5nncn5C)C[C@@H](CC#N)C4)c3)nc12` [Compound B10, N-(3-((1s,3R)-3-(cyanomethyl)-1-(4-methyl-4H-1,2,4-triazol-3-yl)cyclobutyl)phenyl)-3-methyl-7-(((S)-3-methylpiperidin-1-yl)methyl)-1H-pyrrolo[3,2-b]pyridine-5-carboxamide], the IC50 was determined as 2 nM at Cbl-b (aa36-427) and 15.6 nM on Cbl (aa49-434).
With `Cn1cnnc1[C@]1(c2cccc(NC(=O)c3cc(CNC4(C)CC4)cn4ccnc34)c2)C[C@H](CC#N)C1` [Compound A25, N-(3-((1s, 3s)-3-(cyanomethyl)-1-(4-methyl-4H-1,2,4-triazol-3-yl)cyclobutyl)phenyl)-6-(((1-methylcyclopropyl)amino)methyl)imidazo[1,2-a]pyridine-8-carboxamide], the figures for the IC50 on Cbl-b (aa36-427) and on Cbl (aa49-434) were 1.5 nM and 10.5 nM, respectively.
The matching figures for `C[C@H]1CCCN(Cc2cc(C(=O)Nc3cccc([C@]4(Cc5nncn5C)C[C@@H](C#N)C4)c3)nc3cc[nH]c23)C1` [Compound B7, N-(3-((1r,3S)-3-cyano-1-((4-methyl-4H-1,2,4-triazol-3-yl)methyl)cyclobutyl)phenyl)-7-(((S)-3-methylpiperidin-1-yl)methyl)-1H-pyrrolo[3,2-b]pyridine-5-carboxamide]: 1.9 nM and 6.4 nM.
Take `Cn1cnnc1[C@]1(c2cccc(NC(=O)c3cc(CNCC4(C)CCC4)cn4c(Cl)cnc34)c2)C[C@H](CC#N)C1` [Compound A35, 3-chloro-N-(3-((1s, 3s)-3-(cyanomethyl)-1-(4-methyl-4H-1,2,4-triazol-3-yl)cyclobutyl)phenyl)-6-((((1-methylcyclobutyl)methyl)amino)methyl)imidazo[1,2-a]pyridine-8-carboxamide]: the IC50 at Cbl-b (aa36-427) worked out at 2.2 nM; at Cbl (aa49-434), 13 nM.
